According to patent US9732105B2, “Targeted nitroxide agents” (University of Pittsburgh—of the Commonwealth System of …, priority 2011, dated 2017):
Like-named read-outs stand apart in the source and are kept apart here.

Tests used:
[1] = Ascorbic acid electron scavenging assay (disappearance of nitroxide ESR signal); format: biochemical; conditions: 0.5 μM nitroxide, nitroxide ESR signal after 8.5 min; for Signal Decrease (%) (c): 1.12 mM ascorbate; for Signal Decrease (%) (a): 35 μM ascorbate; for Signal Decrease (%) (b): 280 μM ascorbate
Description: In contrast to the DPPH assay, which mainly addresses the radical scavenging/reducing properties of nitroxides and hydroxylamines, the reaction of nitroxides with ascorbic acid benchmarks their ability to act as oxidizing agents in their conversion to hydroxylamines, which is important to their protective function as electron scavengers in the mitochondrial electron transport chain. The electron acceptor potentials of various nitroxides were thus benchmarked in the presence of low, medium, and high concentrations of the electron donor ascorbate (Table 3). ESR was used to detect the characteristic triplet of the nitroxide vs the doublet of ascorbate radicals (see supplementary information), and the disappearance of the former and appearance of the latter was measured over 8.5 min.

[2] = system: Ercc1^−/− MEFs; assay: Cell proliferation / rescue of oxidative-stress-induced senescence in Ercc1−/− MEFs; format: cell-based; conditions: for EC50: read-out: Cell proliferation EC50
Description: Cell survival in irradiation studies depends on complex biochemical pathways, possibly accounting for the complex correlation of nitroxide structure and radiation mitigation properties. Irradiation-induced cell death results from an accumulation of events that individually are not able to kill the cell, but which become lethal when added together. To develop a firmer basis for studying structural modifications, we assayed the ability to rescue cellular senescence induced by oxidative stress in Ercc1^−/− MEFs as a function of test agents (Table 5).
Ercc1^−/− MEFs completely lack a critical DNA repair factor, making these cells highly sensitive to genotoxic and oxidative stress. Growth of the Ercc1^−/− MEFs in 20% 02 results in cellular senescence as measured by senescence associated β-gal, γ-H2AX staining and p16 protein levels. The ability to rescue senescence, as measured by an increase in cell number, correlates with the inhibition of oxidative stress.

[3] = DPPH radical scavenging assay; format: biochemical; conditions: for EC50: EtOH, 100 μM DPPH, 30 min at 37° C.
Description: The free radical reduction abilities of the nitroxides and nitroxide-conjugates were benchmarked by the DPPH (2,2-diphenyl-1-picrylhydrazyl) assay.

[4] = Stability of the free nitroxide on storage; format: physicochemical; conditions: after removal of the Boc group; storage at rt
Description: Preparation of 3-amino-ABNO (12) was envisioned from the known ketone 21, which was easily accessible in one step from acetonedicarboxylic acid and glutaraldehyde (Scheme 1). Conversion of 21 to oxime 22, followed by reduction to the amine with nickel boride and N-Boc protection provided carbamate 23 in high yield. Removal of the benzyl group by catalytic hydrogenolysis and oxidation of the free secondary amine in the presence of urea-hydrogen peroxide complex (UHP) furnished the Boc-protected nitroxide 24.
A mixture of Boc-protected amine 3-Boc-amino-ABNO (24, 200 mg, 0.783 mmol) in a 4.0 N solution of HCl in 1,4-dioxane (3.3 mL, 13.2 mmol) was stirred at 0° C. for 1 h and at rt for an additional 2 h. The suspension was then filtered and the solid rinsed with cold dry Et2O, to give 167 mg of an off-white powder. It was dissolved in a minimum of 2.5 N aq. NaOH, and extracted with warm CHCl3 (7×). The combined organic layers were dried (K2CO3), filtered and concentrated in vacuo to afford 110 mg (90%) of a red oil. Upon high vacuum and/or storage at rt for not more than 1 h, the product started to loose the red color characteristic for a nitroxide and became pale yellow. Thus, the title compound is unstable.

[5] = system: 32Dcl3 murine hematopoietic cells; assay: Irradiation survival assay (colony formation) in 32Dcl3 cells; format: cell-based; conditions: for Do, before irradiation / ñ, before irradiation: 10 μM nitroxide for 1 h before irradiation, 0 to 8 Gy; for Do, before irradiation / ñ, before irradiation / Do, after irradiation / ñ, after irradiation: colonies after 7 d; for Do, after irradiation / ñ, after irradiation: cells irradiated, then placed in media containing 10 μM nitroxide; for protection of cells from irradiation (in words): given 1 h before irradiation, shown by increased D0
Description: Irradiation survival assays were used to test the ability of selected nitroxide-conjugates to protect against, or mitigate, irradiation-induced damage of 32Dcl3 murine hematopoietic cells.

5-amino-TMIO [Compound 8]
Signal Decrease (%) (c) [1]: 40.3%
EC50 ([2]; Ercc1−/− MEFs, 20% O2): < 0.001 µM

6-Boc-amino-1-Me-AZADO [Compound 32]
DPPH radical scavenging activity (in words) [3]: slightly higher EC50 values than their corresponding nitroxide substructures
Signal Decrease (%) (a) [1]: 100%
Signal Decrease (%) (b) [1]: 100%
EC50 ([2]; Ercc1−/− MEFs, 20% O2): 0.0622 µM

O=C1O[C@H]([C@@H](O)CO)C(O)=C1O [Ascorbic acid, reference compound]
EC50 [3]: 28 ± 5 µM

CC(C)C[C@@H](/C=C/CC(=O)NC1CC(C)(C)N([O])C(C)(C)C1)NC(=O)OCc1ccccc1 [Compound 1]
EC50 ([2]; Ercc1−/− MEFs, 20% O2): 0.589 µM

CC(C)C[C@H](NC(=O)OC(C)(C)C)[C@@H]1C[C@H]1CC(=O)NC1CC(C)(C)N([O])C(C)(C)C1 [Compound 2]
EC50 ([2]; Ercc1−/− MEFs, 20% O2): 0.332 µM

CC(C)C[C@@H](/C=C/CC(=O)NC1CC(C)(C)N([O])C(C)(C)C1)NP(=O)(c1ccccc1)c1ccccc1 [Compound 3]
EC50 [2]: 0.0704 µM

CC(C)C[C@H](NC(=O)OCc1ccccc1)[C@@H]1C[C@H]1CC(=O)NC1CC(C)(C)N([O])C(C)(C)C1 [Compound 4]
EC50 ([2]; Ercc1−/− MEFs, 20% O2): 0.231 µM

CC(C)C[C@H](/C=C/CC(=O)NC1CC(C)(C)N([O])C(C)(C)C1)NC(=O)OC(C)(C)C [Compound 5]
EC50 [2]: 0.2 µM

CC(C)C[C@@H](/C=C/C(F)(F)C(=O)NC1CC(C)(C)N([O])C(C)(C)C1)NC(=O)OC(C)(C)C [Compound 6]
Signal Decrease (%) (a) [1]: 58.4%
Signal Decrease (%) (b) [1]: 94.1%
EC50 [2]: 0.0076 ± 0.0014 µM

CC1(C)c2ccc(N)cc2C(C)(C)N1O [Compound 8-H]
EC50 [3]: 169 ± 7 µM

CC1(C)CC(O)CC(C)(C)N1[O] [Compound 9, 4-hydroxy-2,2,6,6-tetramethylpiperidine-N-oxyl, reference compound]
Signal Decrease (%) (a) [1]: 35.7%
Signal Decrease (%) (b) [1]: 81%
Signal Decrease (%) (c) [1]: 100%
EC50 [2]: 0.229 ± 0.0239 µM

N[C@@H]1CC2CCC[C@@H](C1)N2[O] [Compound 12, 3-Amino-9-azabicyclo[3.3.1]nonane N-oxyl]
stability (in words) [4]: unstable

CC(C)C[C@@H](/C=C/CC(=O)Nc1ccc2c(c1)C(C)(C)N([O])C2(C)C)NC(=O)OC(C)(C)C [Compound 20]
DPPH radical scavenging activity (in words) [3]: slightly higher EC50 values than their corresponding nitroxide substructures
Signal Decrease (%) (b) [1]: 15.5%
Signal Decrease (%) (c) [1]: 77.4%
Do, before irradiation [5]: 1.8 ± 0.1 Gy
ñ, before irradiation [5]: 1.0 ± 0.1
Do, after irradiation [5]: 1.4 ± 0.1 Gy
ñ, after irradiation [5]: 2.4 ± 0.2
protection of cells from irradiation (in words) [5]: able to protect cells from multiple killing events
EC50 ([2]; Ercc1−/− MEFs, 20% O2): 0.0176 ± 0.0014 µM

CC(C)(C)OC(=O)NC1CC2CCCC(C1)N2O (stereo not shown) [Compound 24, 3-(tert-Butoxycarbonylamino)-9-azabicyclo[3.3.1]nonane N-oxyl]
Signal Decrease (%) (a) [1]: 100%
Signal Decrease (%) (b) [1]: 100%
EC50 ([2]; Ercc1−/− MEFs, 20% O2): 0.04 µM

CC(C)C[C@@H](/C=C/CC(=O)N[C@@H]1CC2CCC[C@@H](C1)N2[O])NC(=O)OC(C)(C)C [Compound 26, (S,E)-N-(9-Azabicyclo[3.3.1]nonan-9-oxo-3-yl)-5-(tert-butoxycarbonylamino)-7-methyloct-3-enamide]
DPPH radical scavenging activity (in words) [3]: slightly higher EC50 values than their corresponding nitroxide substructures
Signal Decrease (%) (a) [1]: 100%
Signal Decrease (%) (b) [1]: 100%
Do, before irradiation [5]: 3.1 ± 0.6 Gy
ñ, before irradiation [5]: 1.0 ± 0.1
Do, after irradiation [5]: 1.3 ± 0.1 Gy
ñ, after irradiation [5]: 2.7 ± 0.7
protection of cells from irradiation (in words) [5]: able to protect cells from multiple killing events
EC50 ([2]; Ercc1−/− MEFs, 20% O2): 0.0118 ± 0.0027 µM

CC(C)C[C@@H](/C=C/CC(=O)NC1[C@@H]2CC3C[C@H]1C[C@](C)(C2)N3[O])NC(=O)OC(C)(C)C (stereo partly shown) [Compound 33]
Do, before irradiation [5]: 2.6 ± 0.4 Gy
ñ, before irradiation [5]: 1.0 ± 0.1
Do, after irradiation [5]: 1.3 ± 0.1 Gy
ñ, after irradiation [5]: 2.5 ± 0.3
protection of cells from irradiation (in words) [5]: able to protect cells from multiple killing events
EC50 ([2]; Ercc1−/− MEFs, 20% O2): 0.0053 ± 0.0005 µM

COc1cc(/C=C/C(=O)CC(=O)/C=C/c2ccc(O)c(OC)c2)ccc1O [Curcumin, reference compound]
EC50 ([2]; Ercc1−/− MEFs, 20% O2): 1 µM
rescue of senescence (in words) ([2]; used as negative control): only very weak effects

CC(C)C[C@@H](/C=C/CC(=O)NC1CC(C)(C)N([O])C(C)(C)C1)NC(=O)OC(C)(C)C [JP4-039]
DPPH radical scavenging activity (in words) [3]: did not exhibit any significant activity
Signal Decrease (%) (a) [1]: 29.7%
Signal Decrease (%) (b) [1]: 81.4%
Do, before irradiation [5]: 2.3 ± 0.3 Gy
ñ, before irradiation [5]: 1.0 ± 0.1
Do, after irradiation [5]: 1.2 ± 0.1 Gy
ñ, after irradiation [5]: 3.5 ± 0.2
protection of cells from irradiation (in words) [5]: able to protect cells from multiple killing events
EC50 [2]: 0.21 ± 0.0152 µM

CC1(C)CCCC(C)(C)N1O [TEMPO-H, reference compound]
EC50 [3]: 79 ± 2 µM

CC(C)C[C@@H](/C=C/[C@H](Cc1ccccc1)C(=O)N1CCC[C@H]1C(=O)N[C@H](C(=O)N[C@@H](CCCNC(=O)OCc1ccccc1)C(=O)NC1CC(C)(C)N([O])C(C)(C)C1)C(C)C)NC(=O)OC(C)(C)C [XJB-5-131]
DPPH radical scavenging activity (in words) [3]: did not exhibit any significant activity
Signal Decrease (%) (a) [1]: 76.7%
Signal Decrease (%) (b) [1]: 92.4%
EC50 ([2]; Ercc1−/− MEFs, 20% O2): 0.212 ± 0.0051 µM
